Test results taken from ChEMBL document CHEMBL1126531, “Synthesis of N-Acetylhemiaminal metabolites of opc-21268, vasopressin V1 receptor antagonist” (Bioorg Med Chem Lett, 1993).

Molecular target: Vasopressin V1 receptor (Homo sapiens, UniProt P37288+P47901)
Assay: Compound was evaluated for antagonistic activity against vasopressin V1 receptor
Format: functional

| IC50 [µM] | SMILES |
| --- | --- |
| 0.6 | CC(=O)NC(O)CCOc1ccc(C(=O)N2CCC(N3C(=O)CCc4ccccc43)CC2)cc1 (stereo not drawn) |
| 3.3 | CC(=O)NC(O)CCOc1ccc(C(=O)N2CCC(n3c(=O)ccc4ccccc43)CC2)cc1 (stereo not drawn) |

| SMILES | IC50 [µM] |
| --- | --- |
| CC(=O)NCCCOc1ccc(C(=O)N2CCC(N3C(=O)CCc4ccccc43)CC2)cc1 | 0.44 |
